From article PMC11630551, “In silico screening of protein-binding peptides with an application to developing peptide inhibitors against antibiotic resistance” (PNAS Nexus, 2024)
“Also recorded” adds a separate entry of the source.

Columns and labels:
TEM-1 β-lactamase = biological target: T1, TEM-1 β-lactamase (Escherichia coli, UniProt P62593); format: biochemical
T1 construct: host or cells: E. coli BL21 (DE3)
Description: Because these peptides were designed to bind to the substrate-binding pocket of TEM-1, the interactions of TEM-1:peptide were evaluated using β-lactamase activity assay. The peptides were preincubated with purified recombinant TEM-1 at room temperature to allow binding before mixing with substrate, nitrocefin. The enzymatic activity was measured by monitoring the colorimetric change of nitrocefin with TEM-1 in the absence and presence of the peptide candidates.
Peptide screening was performed with 5 nM TEM-1 mixed with 100 μM of each peptide. The peptide was preincubated with TEM-1 at 37 °C for 30 min prior to mixing with nitrocefin. […] Nitrocefin was then rapidly mixed with the TEM-1: peptide solution to measure the absorbance change at 520 nm. The final concentrations of TEM-1 and nitrocefin in the mixture were 5 nM and 10 μM, respectively.

[1] = Solubility of synthesized peptides; conditions: excluded from assay experiments

T1 sequence (P62593 24-286 limits assumed): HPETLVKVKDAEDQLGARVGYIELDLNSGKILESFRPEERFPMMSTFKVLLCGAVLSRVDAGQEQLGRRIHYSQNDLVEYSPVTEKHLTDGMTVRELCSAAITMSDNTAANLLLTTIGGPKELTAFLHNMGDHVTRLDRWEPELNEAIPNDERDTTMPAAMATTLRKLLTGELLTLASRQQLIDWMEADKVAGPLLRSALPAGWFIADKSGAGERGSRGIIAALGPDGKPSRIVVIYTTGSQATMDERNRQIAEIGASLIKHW

## RDSVGAASVN [TF9]
TEM-1 β-lactamase
  change of β-lactamase activity of TEM-1 at peptide screening concentration: did not exhibit significant inhibition

## ARDATCRRWG [TF3]
TEM-1 β-lactamase
  change of β-lactamase activity of TEM-1 at peptide screening concentration: increased the β-lactamase activity; also recorded: did not exhibit significant inhibition

## AKYFEQASYG [TF6]
TEM-1 β-lactamase
  change of β-lactamase activity of TEM-1 at peptide screening concentration: increased the β-lactamase activity; also recorded: did not exhibit significant inhibition

## ESYHGMLACVIAG [TF10]
[1]
  solubility: poor solubility

## EYGDAWHDAG [TF4]
TEM-1 β-lactamase
  change of β-lactamase activity of TEM-1 at peptide screening concentration: did not exhibit significant inhibition

## ASRAEVDAAAKGAA [TF8]
TEM-1 β-lactamase
  change of β-lactamase activity of TEM-1 at peptide screening concentration: did not exhibit significant inhibition
